Data reported in ChEMBL document CHEMBL1201862, “PubChem BioAssay data set” (2004).
Each block holds one compound with its values, some of them ahead of it. Activity calls are given as the source filed them.

Tests used:
[1] = target: Eukaryotic translation initiation factor 4E (Mus musculus, UniProt P63073); experiment: blockers of eIF4G binding by eIF4E – biochemical, TR-FRET, dose response (AID 855); assay type: functional;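 note: potency for disrupting eIF4E binding to eIF4GI seen as loss of FRET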
Eukaryotic translation initiation factor 4E, sequence (P63073 whole entry): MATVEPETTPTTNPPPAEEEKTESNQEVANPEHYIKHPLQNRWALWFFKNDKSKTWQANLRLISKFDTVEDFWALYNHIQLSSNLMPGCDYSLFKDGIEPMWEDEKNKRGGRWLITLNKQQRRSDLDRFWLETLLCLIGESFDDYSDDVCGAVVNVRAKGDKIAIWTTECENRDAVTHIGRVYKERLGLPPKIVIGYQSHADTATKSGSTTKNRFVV

[2] = target: T1, Calpain-2 catalytic subunit (Sus scrofa, UniProt P43367); experiment: m-calpain protease blockers, concentration series – biochemical, fluorogenic peptide substrate, dose response (AID 1420); assay type: functional
T1 sequence (P43367 whole entry): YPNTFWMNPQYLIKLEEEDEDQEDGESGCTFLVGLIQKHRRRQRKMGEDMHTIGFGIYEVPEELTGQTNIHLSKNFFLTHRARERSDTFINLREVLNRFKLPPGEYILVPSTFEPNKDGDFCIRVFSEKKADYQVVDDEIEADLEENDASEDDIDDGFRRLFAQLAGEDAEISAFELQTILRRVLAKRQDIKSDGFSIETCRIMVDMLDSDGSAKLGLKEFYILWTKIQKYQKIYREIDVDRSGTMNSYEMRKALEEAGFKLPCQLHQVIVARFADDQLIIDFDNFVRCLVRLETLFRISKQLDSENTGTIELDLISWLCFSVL

[3] = target: T2, Corticotropin-releasing factor receptor 2/Corticotropin-releasing factor-binding protein (Homo sapiens, UniProt P24387+Q13324); experiment: Dose Response confirmation of uHTS hits for small molecule antagonists of the CRF-binding protein and CRF-R2 receptor complex.; assay type: functional; conditions: read-out: IC50_Mean
T2 sequence (Q13324 whole entry): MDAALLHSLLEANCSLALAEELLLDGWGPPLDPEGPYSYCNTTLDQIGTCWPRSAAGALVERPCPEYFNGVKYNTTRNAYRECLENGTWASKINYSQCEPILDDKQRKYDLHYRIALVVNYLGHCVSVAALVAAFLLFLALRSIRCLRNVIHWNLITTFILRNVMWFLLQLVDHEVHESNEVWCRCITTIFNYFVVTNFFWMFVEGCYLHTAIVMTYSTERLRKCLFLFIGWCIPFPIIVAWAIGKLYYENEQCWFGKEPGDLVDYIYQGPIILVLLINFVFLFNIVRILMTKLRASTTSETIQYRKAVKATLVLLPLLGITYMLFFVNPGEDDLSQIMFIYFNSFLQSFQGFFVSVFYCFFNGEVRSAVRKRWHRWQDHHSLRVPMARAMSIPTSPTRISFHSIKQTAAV
T2 sequence (P24387 whole entry): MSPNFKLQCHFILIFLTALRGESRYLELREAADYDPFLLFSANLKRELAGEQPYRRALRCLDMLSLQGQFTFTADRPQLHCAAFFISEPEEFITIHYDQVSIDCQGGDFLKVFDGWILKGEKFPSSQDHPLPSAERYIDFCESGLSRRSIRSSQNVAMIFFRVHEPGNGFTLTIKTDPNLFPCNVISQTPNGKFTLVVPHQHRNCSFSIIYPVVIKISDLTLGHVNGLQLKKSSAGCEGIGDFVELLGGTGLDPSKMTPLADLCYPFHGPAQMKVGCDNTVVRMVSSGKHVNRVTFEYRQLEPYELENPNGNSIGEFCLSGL

[4] = target: T2, Corticotropin-releasing factor receptor 2/Corticotropin-releasing factor-binding protein; experiment: activators of CRF receptor 2 with binding protein – uHTS hits, confirmation (AID 602473); assay type: functional; conditions: read-out: EC50_Mean
Cytochrome P450 3A4 = Cytochrome P450 3A4 (Homo sapiens, UniProt P08684); conditions: Potency;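 note: confirmatory qHTS run detecting inhibitors and substrates of CYP3A4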
Cytochrome P450 3A4, sequence (P08684 whole entry): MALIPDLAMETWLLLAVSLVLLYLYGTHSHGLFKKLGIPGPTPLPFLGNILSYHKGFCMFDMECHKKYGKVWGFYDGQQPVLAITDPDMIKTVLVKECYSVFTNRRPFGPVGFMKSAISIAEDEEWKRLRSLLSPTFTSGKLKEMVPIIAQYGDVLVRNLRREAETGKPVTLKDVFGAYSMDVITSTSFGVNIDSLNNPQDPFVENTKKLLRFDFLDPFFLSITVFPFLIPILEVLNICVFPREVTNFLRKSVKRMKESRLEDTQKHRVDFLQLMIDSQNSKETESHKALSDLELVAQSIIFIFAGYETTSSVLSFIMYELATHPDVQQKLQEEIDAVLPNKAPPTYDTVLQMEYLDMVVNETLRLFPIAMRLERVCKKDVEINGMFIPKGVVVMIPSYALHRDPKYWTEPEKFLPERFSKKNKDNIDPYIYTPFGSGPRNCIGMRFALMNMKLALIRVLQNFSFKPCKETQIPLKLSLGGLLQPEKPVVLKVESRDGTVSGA

Large T antigen = Large T antigen (Simian virus 40, UniProt P03070); assay type: functional, Betapolyomavirus macacae;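 note: Confirmatory-stage PubChem screen for compounds that inhibit SV40 T antigen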
Large T antigen, sequence (P03070 whole entry): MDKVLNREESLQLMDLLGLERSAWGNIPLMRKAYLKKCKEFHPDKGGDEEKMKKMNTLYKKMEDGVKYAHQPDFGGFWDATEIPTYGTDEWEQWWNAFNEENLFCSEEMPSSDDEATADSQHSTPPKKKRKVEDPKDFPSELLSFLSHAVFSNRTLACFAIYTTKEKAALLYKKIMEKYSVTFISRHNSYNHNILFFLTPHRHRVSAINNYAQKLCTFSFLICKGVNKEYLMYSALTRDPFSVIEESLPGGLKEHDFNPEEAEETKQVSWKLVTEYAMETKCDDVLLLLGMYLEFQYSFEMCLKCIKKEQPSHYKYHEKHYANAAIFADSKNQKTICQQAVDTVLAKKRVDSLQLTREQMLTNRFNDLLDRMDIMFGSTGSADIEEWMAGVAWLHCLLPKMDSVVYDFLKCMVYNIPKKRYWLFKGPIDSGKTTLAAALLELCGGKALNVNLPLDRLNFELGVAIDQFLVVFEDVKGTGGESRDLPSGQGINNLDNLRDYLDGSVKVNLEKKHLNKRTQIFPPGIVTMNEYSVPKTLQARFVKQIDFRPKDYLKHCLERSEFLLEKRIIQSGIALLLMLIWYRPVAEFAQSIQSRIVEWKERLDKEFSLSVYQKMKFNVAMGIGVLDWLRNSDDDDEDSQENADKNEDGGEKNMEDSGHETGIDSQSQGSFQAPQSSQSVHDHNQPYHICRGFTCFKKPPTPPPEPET

[5] = target: T3, Rac GTPase-activating protein 1 (Homo sapiens, UniProt Q9H0H5); experiment: blockers of MgcRacGAP-driven Rac1 GTP hydrolysis – biochemical, ADP Hunter fluorescence, primary and confirmatory, confirmation (AID 624330); assay type: functional
T3 sequence (Q9H0H5 whole entry): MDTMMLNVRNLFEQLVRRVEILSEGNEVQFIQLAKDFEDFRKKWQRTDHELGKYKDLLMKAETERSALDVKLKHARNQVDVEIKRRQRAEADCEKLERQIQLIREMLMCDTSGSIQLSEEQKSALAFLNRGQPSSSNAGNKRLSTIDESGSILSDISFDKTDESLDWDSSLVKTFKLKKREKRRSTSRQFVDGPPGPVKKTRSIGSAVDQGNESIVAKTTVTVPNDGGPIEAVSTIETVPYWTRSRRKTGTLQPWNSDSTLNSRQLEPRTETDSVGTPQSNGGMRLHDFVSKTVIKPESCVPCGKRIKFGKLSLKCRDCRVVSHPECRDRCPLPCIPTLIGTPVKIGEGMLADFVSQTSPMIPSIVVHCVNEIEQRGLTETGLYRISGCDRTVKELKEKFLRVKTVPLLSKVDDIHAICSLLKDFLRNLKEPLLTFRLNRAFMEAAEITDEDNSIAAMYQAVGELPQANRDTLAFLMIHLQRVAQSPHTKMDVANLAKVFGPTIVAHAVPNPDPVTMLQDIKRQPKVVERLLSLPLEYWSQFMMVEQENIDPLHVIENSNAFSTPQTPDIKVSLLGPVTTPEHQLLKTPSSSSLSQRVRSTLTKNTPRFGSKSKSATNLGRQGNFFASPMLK

Cytochrome P450 2C19 = Cytochrome P450 2C19 (Homo sapiens, UniProt P33261); experiment: Cytochrome panel assay with activity outcomes. Panel member name: p450-cyp2c19 Compounds with AC50 equal or less than 10 uM are considered active; assay type: functional; conditions: read-out: AC50
Cytochrome P450 2C19, sequence (P33261 whole entry): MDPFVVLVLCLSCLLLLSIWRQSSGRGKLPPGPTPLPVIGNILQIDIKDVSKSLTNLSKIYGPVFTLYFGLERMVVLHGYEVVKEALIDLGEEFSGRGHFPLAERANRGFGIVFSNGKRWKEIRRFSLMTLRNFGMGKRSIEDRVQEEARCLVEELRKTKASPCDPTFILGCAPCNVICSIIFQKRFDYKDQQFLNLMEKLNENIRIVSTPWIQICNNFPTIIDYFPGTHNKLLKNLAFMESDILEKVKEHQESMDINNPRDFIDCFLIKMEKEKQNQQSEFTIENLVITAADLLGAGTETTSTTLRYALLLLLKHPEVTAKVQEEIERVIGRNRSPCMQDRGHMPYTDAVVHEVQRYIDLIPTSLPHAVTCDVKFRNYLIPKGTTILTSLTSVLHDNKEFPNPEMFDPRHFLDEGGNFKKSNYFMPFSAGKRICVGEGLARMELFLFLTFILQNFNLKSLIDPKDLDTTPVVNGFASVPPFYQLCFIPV

Cytochrome P450 2D6 = Cytochrome P450 2D6 (Homo sapiens, UniProt P10635);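 note: CYP2D6 member of a cytochrome P450 panel assay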
Cytochrome P450 2D6, sequence (P10635 whole entry): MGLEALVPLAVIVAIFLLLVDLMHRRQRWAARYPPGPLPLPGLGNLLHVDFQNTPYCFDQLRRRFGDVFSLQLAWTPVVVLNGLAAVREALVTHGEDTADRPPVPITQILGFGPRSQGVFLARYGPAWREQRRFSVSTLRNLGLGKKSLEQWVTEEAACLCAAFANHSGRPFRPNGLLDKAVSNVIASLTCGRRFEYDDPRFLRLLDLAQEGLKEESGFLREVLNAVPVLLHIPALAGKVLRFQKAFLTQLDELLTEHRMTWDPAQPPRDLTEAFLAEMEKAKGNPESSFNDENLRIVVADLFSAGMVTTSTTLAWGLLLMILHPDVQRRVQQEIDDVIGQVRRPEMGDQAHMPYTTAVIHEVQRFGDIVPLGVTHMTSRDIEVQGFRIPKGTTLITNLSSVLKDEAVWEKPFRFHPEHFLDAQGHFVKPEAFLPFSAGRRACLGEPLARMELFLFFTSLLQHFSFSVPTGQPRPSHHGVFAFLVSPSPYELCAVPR

Cytochrome P450 2C9 = Cytochrome P450 2C9 (Homo sapiens, UniProt P11712)
Cytochrome P450 2C9, sequence (P11712 whole entry, the tested form may be a part): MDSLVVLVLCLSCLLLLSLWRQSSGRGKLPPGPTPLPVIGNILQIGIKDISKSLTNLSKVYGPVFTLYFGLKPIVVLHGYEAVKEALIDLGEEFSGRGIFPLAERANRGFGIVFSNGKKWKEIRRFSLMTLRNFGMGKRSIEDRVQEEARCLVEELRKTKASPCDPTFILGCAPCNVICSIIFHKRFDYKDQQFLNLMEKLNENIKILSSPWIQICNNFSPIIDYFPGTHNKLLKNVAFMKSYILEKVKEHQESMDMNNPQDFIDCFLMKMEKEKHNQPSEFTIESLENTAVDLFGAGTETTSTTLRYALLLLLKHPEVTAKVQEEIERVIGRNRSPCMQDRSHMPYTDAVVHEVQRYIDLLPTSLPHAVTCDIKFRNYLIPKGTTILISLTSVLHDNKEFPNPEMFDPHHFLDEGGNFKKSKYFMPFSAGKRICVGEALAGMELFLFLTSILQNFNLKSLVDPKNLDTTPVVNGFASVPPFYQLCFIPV

[6] = blockers of HIV-1 envelope-mediated cell-cell fusion – cherry-pick, dose response (AID 652057); assay type: functional, cell-based
[7] = blockers of HIV-1 ZM109 envelope-driven cell-cell fusion – HeLa effector, CEM target cells, luciferase, cherry-pick, dose response (AID 652058); assay type: functional, cell-based;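 note: luciferase signal from HIV-1 Env mediated cell-cell fusion of effector and target cells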
[8] = HIV-1 AD8 envelope cell-cell fusion blockers – cherry-pick, dose response (AID 652062); assay type: functional, cell-based;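 note: luciferase signal from cell-cell fusion driven by HIV-1 clade B AD8 Env; potency is for inhibitors of fusion seen as a drop in luminescence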

Structure (SMILES): Cc1cccc(NC(=O)c2cc(S(=O)(=O)c3ccccc3)ccc2Cl)c1
IC50 [2]: 7.13 µM (not active)
IC50 [3]: 3.47 µM (active)
EC50 [4]: > 53 µM (inactive)

Structure (SMILES): CC(=O)[C@@H]1[C@H]2[C@H](C(=O)[C@H]3OC[C@@H]2O3)[C@H]2C=Cc3ccccc3N21
AC50 (Cytochrome P450 3A4): 25.1 µM (inconclusive)

Structure (SMILES): Cn1cc(C2=C(c3cn(CCCSC(=N)N)c4ccccc34)C(=O)NC2=O)c2ccccc21
AC50 (Cytochrome P450 3A4): 6.31 µM (inconclusive)

Structure (SMILES): CC(=O)NC1(c2ccccc2)CCN(C(=O)N2CCOCC2)CC1
IC50 [2]: 7.15 µM (not active)

Structure (SMILES): COC(=O)[C@@H]1C[C@@]2(O)[C@H](O)[C@H](O)[C@H](O)C[C@H]2N1Cc1cccnc1
AC50 (Cytochrome P450 3A4): 31.6 µM (inconclusive)

Structure (SMILES): COC(=O)CCC(C)C1CCC2C3C(O)C[C@@H]4CC(O)CC[C@@]4(C)C3CC(O)[C@]12C (some centres not stated)
AC50 (Cytochrome P450 3A4): 20 µM (inconclusive)

Structure (SMILES): CN1CCN(NC(=O)c2cccc(F)c2)CC1
AC50 (Cytochrome P450 2C19): 39.8 µM (inconclusive)
AC50 (Cytochrome P450 2D6): 39.8 µM (inconclusive)
AC50 (Cytochrome P450 2C9): 355 nM (inconclusive)

Structure (SMILES): C[C@H](CO)N1C[C@H](C)[C@H](CN(C)S(=O)(=O)c2cccs2)Oc2ccc(NC(=O)Nc3cccc4ccccc34)cc2CC1=O
AC50 [6]: < 260 nM (active)
AC50 [7]: < 260 nM (active)
AC50 [8]: < 260 nM (active)

Structure (SMILES): COc1cc(/C=N/NC(=O)C(=O)NCC2CCCO2)ccc1O (configuration not stated)
IC50 (Large T antigen): 11.7 µM (active)
IC50 [5]: 32.3 µM (active)

Structure (SMILES): COc1cccc(-c2ccc3ncnc(NCc4ccc(OC)cc4OC)c3c2)c1
AC50 (Cytochrome P450 2D6): 20 µM (inconclusive)
AC50 (Cytochrome P450 2C9): 501 nM (inconclusive)

The next lines start with the values.

IC50 [1]: 50 µM (inactive)
Structure (SMILES): Cc1c(C(=O)N2CCCCC2)nn(-c2ccc(Cl)cc2)c(=O)c1C#N

IC50 (Large T antigen): 5.09 µM (active)
IC50 [5]: 22.3 µM (active)
Structure (SMILES): O=S1(=O)N=C(Nc2ccc(O)cc2)c2ccccc21

IC50 [2]: 22.8 µM (not active)
Structure (SMILES): Cc1nn(-c2ccc(Cl)c(Cl)c2Cl)c(=O)c2ccccc12

IC50 [2]: 7.24 µM (active)
Structure (SMILES): CCOC(=O)N1CCC(Nc2ccc(N3C(=O)C4CCCCC4C3=O)cc2[N+](=O)[O-])CC1 (configuration not stated)

AC50 (Cytochrome P450 3A4): 31.6 µM (inconclusive)
Structure (SMILES): COc1cc2c(cc1OC)C1Cc3ccc(OC)c(OC)c3CN1CC2 (configuration not stated)

IC50 (Large T antigen): 5.98 µM (active)
IC50 [5]: 40.8 µM (active)
Structure (SMILES): CCN(CC)c1ccc(/C=N/N2CCOCC2)cc1

AC50 (Cytochrome P450 3A4): 39.8 µM (inconclusive)
Structure (SMILES): COc1ccc2c(c1)OCc1c-2oc2cc(OC)ccc12 [DEHYDROVARIABILIN]
